According to patent US10036034B2, “Sequences involved in plant yield and methods of using” (NUtech Ventures, priority 2014, dated 2018):
Read-outs that look alike come from different tables or passages of the source. Marks after values point to notes of the source that are not given here.

What was measured:
P76 and TL seedlings = experiment: Effect of GA biosynthesis inhibitor Paclobutrazol (PAC) on lateral root density of wheat seedlings; format: in vivo; settings: for Lateral Root Density / Number of Lateral Roots / Primary Root Length: 6 d old seedlings
Excerpt: (§1) For the early seedling stage root screening we used the cigar roll method (Zhu et al., 2006, TAG, 113:1-10). Similar sized seeds were germinated in a petri dish with moist paper towel for three days in the dark at 22-2S° C. Three seedlings per genotype were placed between two sheets of germination paper and rolled vertically. Three batches of 10 cigar rolls, totaling 30 plants per genotype were soaked in tap water and placed vertically in 1 L beaker filled with SO mL of water. Seedlings were grown in a controlled environment using a Percival Intellus Control System incubator (Model: I36VLC8) set at 25/27° C., 11.5/12.5 h day/night, 50/70% relative humidity and illumination of 80 μmols m^−2 sec^−1 during the duration of the experiments (Percival Scientific, Inc., Iowa). Water was added to each beaker twice daily to maintain the volume of 50 ml. All measurements were carried until 6 days after germination. Measurements after Day 6 can potentially be affected by limiting seed resources that drive seedling growth. For gene expression experiments, seedlings were harvested at 2, 4 and 6 days after germination. Root tissue samples were collected and snap frozen. It was hypothesized that the differences in biomass and yield between the Agropyron 7DL lines and the corresponding parental genotypes could be due to increased investment in root production, thus increasing acquisition of water and nutrients from the soil. We used a parent line, Pavon76 (P76), the 1-96-1 translocation line (TL), and a negative control (NC) for the translocation event for these experiments (FIG. 1). The total number of lateral roots (>1 mm) on the primary root axis were counted, and lateral root density was calculated by dividing the number of lateral roots on the primary root axis by the primary root length. Statistical significance was determined using a one-way ANOVA using Tukeys method. Transcriptomic comparison of the TL line and P76 indicated the differential regulation of several gibberellic acid associated genes (GSE42214; Table 8). Therefore, we tested the role of GA in lateral root regulation by treating TL and P76 seedlings with 104 GA3 in WW and LW conditions. […] Given the positive impact of exogenous GA on lateral roots, we measured the endogenous GA level in 6 d seedling roots. GA1 decreased in P76 in LW compared to WW (FIG. 13a). […] Higher GA levels in TL than P76 in LW is likely associated with its ability to maintain lateral root growth in LW. Auxin, which promotes lateral root growth, was not deficient in P76 relative to TL in LW, further supporting a GA-dependent mechanism for maintaining lateral root growth in TL (FIG. 21) (Orman-Ligeza et al., 2013, Trends Plant Sci., 18:459-67; Lavenus et al, 2013, Trends Plant Sci., 18:450-8).

LRD7Ag = experiment: qRT-PCR of LRD7Ag root transcript in GA pretreated TL seedlings; format: in vivo, wheat; settings: GA pretreated TL seedlings in LW
Excerpt: FIG. 13 is data showing that gibberellins (GA) regulate lateral root formation in wheat. Panel (a) is a graph showing GA1 levels in P76 and TL roots in WW and LW conditions (mean±sd, n=30). “a” represents differences between WW and LW for a genotype and “b” represents significant genotypic differences under LW (p<0.05). Panel (b) is a graph showing expression of Agropyron allele of LRD7 (LRD7Ag) in the TL line in WW and LW conditions, with and without GA3 treatment. Transcript abundance was measured relative to WW, non-GA3 treated sample (mean±sd, n=3). “a” represents significant differences between WW and LW for roots with GA3 and no GA3 treatment, “b” represents a significant difference in response to GA treatment (p<0.05). […] Expression values were obtained relative to WW, non-GA3 treated sample as control (mean±sd, n=3). “a” represents significant differences between WW and LW for a genotype and “b” represents significant genotypic differences in LW conditions (p<0.05). […]
(§2) We used SuperScript VILO to synthesize cDNA for semi- and real-time quantitative PCR (qPCR) (Invitrogen Corp., Carlsbad, Calif.). […] Crossing point value (Cp or Ct), which was the point at which the fluorescence crosses the threshold, and melting curve analyses were obtained using the LightCycler Roche 480 Software v1.5. […]

LRD7Ta = experiment: qRT-PCR of LRD7Ta expression in GA pretreated P76 roots; format: in vivo, wheat
Excerpt: FIG. 13 is data showing that gibberellins (GA) regulate lateral root formation in wheat. Panel (a) is a graph showing GA1 levels in P76 and TL roots in WW and LW conditions (mean±sd, n=30). “a” represents differences between WW and LW for a genotype and “b” represents significant genotypic differences under LW (p<0.05). Panel (b) is a graph showing expression of Agropyron allele of LRD7 (LRD7Ag) in the TL line in WW and LW conditions, with and without GA3 treatment. Transcript abundance was measured relative to WW, non-GA3 treated sample (mean±sd, n=3). “a” represents significant differences between WW and LW for roots with GA3 and no GA3 treatment, “b” represents a significant difference in response to GA treatment (p<0.05). […] “a” represents significant differences between WW and LW for a genotype and “b” represents significant genotypic differences in LW conditions (p<0.05). […] The “a” represents significance between WW and LW and “b” indicates significance between CBO37 and RNAi or OE events or between P76 and TL under LW (p<0.05).
as §2

TL and P76 seedlings = experiment: Effect of Gibberellin A3 (GA3) on lateral root density of wheat seedlings in WW and LW conditions; format: in vivo; settings: for Lateral Root (PR) / Lateral Root Density / Primary Root Length: mean ± s.d., n = 30
Excerpt: as §1

SMILES: CC(C)(C)[C@@H](O)[C@@H](Cc1ccc(Cl)cc1)n1cncn1 (racemic) [PAC, Paclobutrazol]
- Lateral Root Density (P76 and TL seedlings; P76, LW (+PAC)): 0.22 ± 0.1^b cm−1
- Number of Lateral Roots (P76 and TL seedlings; P76, LW (+PAC)): 5 ± 2^b
- Primary Root Length (P76 and TL seedlings; P76, LW (+PAC)): 24.2 ± 2.9 cm
- Lateral Root Density (P76 and TL seedlings; P76, WW (+PAC)): 0.45 ± 0.1^b cm−1
- Number of Lateral Roots (P76 and TL seedlings; P76, WW (+PAC)): 11 ± 2^b
- Primary Root Length (P76 and TL seedlings; P76, WW (+PAC)): 25.3 ± 3.0 cm
- Lateral Root Density (P76 and TL seedlings; TL, LW (+PAC)): 0.41 ± 0.1^b cm−1
- Number of Lateral Roots (P76 and TL seedlings; TL, LW (+PAC)): 10 ± 1^b
- Primary Root Length (P76 and TL seedlings; TL, LW (+PAC)): 23.9 ± 2.6 cm
- Lateral Root Density (P76 and TL seedlings; TL, WW (+PAC)): 0.49 ± 0.1^b cm−1
- Number of Lateral Roots (P76 and TL seedlings; TL, WW (+PAC)): 11 ± 2^b
- Primary Root Length (P76 and TL seedlings; TL, WW (+PAC)): 22.7 ± 2.4 cm
- Effect on lateral root formation (P76 and TL seedlings; both P76 and TL): specifically suppressed lateral root formation

SMILES: C=C1C[C@]23C[C@@]1(O)CC[C@H]2[C@@]12C=C[C@H](O)[C@@](C)(C(=O)O1)[C@H]2[C@@H]3C(=O)O [GA3, Gibberellin A3]
- Repression of root transcript abundance of LRD7Ag relative to untreated WW control (LRD7Ag): 5 fold
- LRD7Ta expression in roots compared to LW (no GA) roots (LRD7Ta): down-regulated
- LRD7Ta expression in roots compared to LW (no GA) roots (LRD7Ta; listed as GA): decreased LRD7Ta expression
- Effect of GA treatment on lateral root number and density (TL and P76 seedlings; P76, LW): restored lateral root number and density to WW levels
- Lateral Root (PR) (TL and P76 seedlings; P76, LW (+GA3)): 23 ± 3^b
- Lateral Root Density (TL and P76 seedlings; P76, LW (+GA3)): 0.96 ± 0.1^b cm^−1
- Primary Root Length (TL and P76 seedlings; P76, LW (+GA3)): 23.9 ± 2.2^b cm
- Lateral Root (PR) (TL and P76 seedlings; P76, WW (+GA3)): 24 ± 4
- Lateral Root Density (TL and P76 seedlings; P76, WW (+GA3)): 0.96 ± 0.1 cm⁻¹
- Primary Root Length (TL and P76 seedlings; P76, WW (+GA3)): 25.5 ± 2.8 cm
- Effect of GA treatment on roots (TL and P76 seedlings; P76 and TL, WW conditions): had no effect on roots of either genotype
- Effect of GA treatment on lateral root number and density (TL and P76 seedlings; TL, LW): increased the TL lateral root number and density under LW to above the untreated values
- Lateral Root (PR) (TL and P76 seedlings; TL, LW (+GA3)): 38 ± 4^b
- Lateral Root Density (TL and P76 seedlings; TL, LW (+GA3)): 1.44 ± 0.1^b cm^−1
- Primary Root Length (TL and P76 seedlings; TL, LW (+GA3)): 26.4 ± 2.4 cm
- Lateral Root (PR) (TL and P76 seedlings; TL, WW (+GA3)): 24 ± 5
- Lateral Root Density (TL and P76 seedlings; TL, WW (+GA3)): 0.89 ± 0.2 cm⁻¹
